Test results published in patent publication US8871753B2, “Macrocyclic compounds and their use as kinase inhibitors” (Incyte Corporation, priority 2008, dated 2014).
Structures can show the parent of a compound that is named as a salt.

Legend:
Type in all cases: biochemical
[1] = target: T1, human JAK2 (a.a. 828-1132) (Homo sapiens, UniProt O60674); test: In vitro JAK kinase assay (HTRF, phosphorylation of a biotinylated peptide), JAK2; conditions: method AA1 (30 μM ATP) or AA2 (1000 μM ATP), not stated per value
T1 construct: JAK2 (a.a. 828-1132); His tag (N); made in house; host or cells: insect cells (baculovirus)
Outline: (§1)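 Phosphorylation of a biotinylated peptide by the JAK kinase domain, detected by HTRF with Eu-Py20 and SA-APC. ATP was 90 μM for JAK1, 30 μM for JAK2 and 3 μM for JAK3. Reactions ran 1 h at room temperature and were stopped with EDTA, followed by 40 min antibody binding.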

[2] = target: T2, human JAK1 (a.a. 837-1142) (Homo sapiens, UniProt P23458); test: In vitro JAK kinase assay (HTRF, phosphorylation of a biotinylated peptide), JAK1; conditions: method AA1 (90 μM ATP) or AA2 (1000 μM ATP), not stated per value; read-out: JAK1 IC50
T2 construct: human JAK1 (a.a. 837-1142); His tag (N); made in house; host or cells: insect cells (baculovirus)
Outline: as §1

[3] = target: T3, human JAK3 (a.a. 781-1124) (Homo sapiens, UniProt P52333); test: In vitro JAK kinase assay (HTRF, phosphorylation of a biotinylated peptide), JAK3; conditions: method AA1 (3 μM ATP) or AA2 (1000 μM ATP), not stated per value
T3 construct: JAK3 (a.a. 781-1124); His tag (N); made in house; host or cells: insect cells (baculovirus)
Outline: as §1

[4] = target: T4, Recombinant Human Anaplastic Lymphoma Kinase (Homo sapiens, UniProt Q9UM73); test: ALK HTRF kinase assay; conditions: compound at 500 nM or 1 mM; 90 μM ATP
T4 construct: purchased Invitrogen, Carlsbad, Calif
Outline: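 Biotinylated peptide substrate, recombinant human ALK; detection via europium-chelate antibody to phosphotyrosine paired with streptavidin-APC. Potency expressed as IC50 from four-parameter curve fitting.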

[5] = target: TYK2 (Homo sapiens, UniProt P29597); test: TYK2 kinase inhibition (Table A1)
Sequence of TYK2 (P29597 whole entry): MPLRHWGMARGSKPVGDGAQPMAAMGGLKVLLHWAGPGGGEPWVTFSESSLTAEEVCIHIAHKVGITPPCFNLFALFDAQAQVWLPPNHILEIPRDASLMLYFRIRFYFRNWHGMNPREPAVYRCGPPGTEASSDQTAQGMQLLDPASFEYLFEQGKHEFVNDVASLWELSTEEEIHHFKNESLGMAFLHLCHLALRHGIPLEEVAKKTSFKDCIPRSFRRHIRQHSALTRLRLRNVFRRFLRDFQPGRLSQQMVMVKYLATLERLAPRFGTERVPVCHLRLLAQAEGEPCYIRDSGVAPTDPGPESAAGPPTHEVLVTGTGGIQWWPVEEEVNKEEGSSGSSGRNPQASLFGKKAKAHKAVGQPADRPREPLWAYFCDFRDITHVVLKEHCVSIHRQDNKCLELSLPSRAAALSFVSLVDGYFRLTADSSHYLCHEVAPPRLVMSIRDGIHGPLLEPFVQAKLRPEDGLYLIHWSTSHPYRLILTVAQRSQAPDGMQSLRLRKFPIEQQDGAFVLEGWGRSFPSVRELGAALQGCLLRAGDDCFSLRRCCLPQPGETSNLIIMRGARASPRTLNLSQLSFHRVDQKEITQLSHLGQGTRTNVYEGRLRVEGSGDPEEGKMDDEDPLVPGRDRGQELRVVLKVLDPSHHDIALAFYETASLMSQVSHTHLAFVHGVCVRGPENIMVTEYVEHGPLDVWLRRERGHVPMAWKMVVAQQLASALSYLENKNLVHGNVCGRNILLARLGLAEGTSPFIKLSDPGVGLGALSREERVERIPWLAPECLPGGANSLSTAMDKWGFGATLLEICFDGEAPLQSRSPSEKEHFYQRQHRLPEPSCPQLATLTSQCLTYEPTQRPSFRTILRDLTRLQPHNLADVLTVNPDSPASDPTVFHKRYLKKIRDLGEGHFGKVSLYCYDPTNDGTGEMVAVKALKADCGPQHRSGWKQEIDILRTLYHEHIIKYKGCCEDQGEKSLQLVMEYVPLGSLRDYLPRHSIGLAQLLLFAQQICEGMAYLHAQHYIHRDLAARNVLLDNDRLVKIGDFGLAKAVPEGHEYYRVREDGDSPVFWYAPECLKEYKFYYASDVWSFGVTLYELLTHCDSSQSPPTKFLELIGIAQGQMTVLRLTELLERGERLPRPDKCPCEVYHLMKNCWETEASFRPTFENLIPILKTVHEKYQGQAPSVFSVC

T3 sequence (P52333 781-1124): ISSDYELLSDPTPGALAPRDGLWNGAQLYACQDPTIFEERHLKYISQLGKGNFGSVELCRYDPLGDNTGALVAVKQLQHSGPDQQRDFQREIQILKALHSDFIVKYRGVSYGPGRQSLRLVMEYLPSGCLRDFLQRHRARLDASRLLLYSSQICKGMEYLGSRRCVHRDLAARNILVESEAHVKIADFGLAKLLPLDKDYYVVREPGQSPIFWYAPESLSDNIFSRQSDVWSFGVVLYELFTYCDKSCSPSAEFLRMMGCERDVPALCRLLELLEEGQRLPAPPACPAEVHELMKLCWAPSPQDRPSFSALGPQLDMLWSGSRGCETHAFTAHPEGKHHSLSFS
T1 sequence (O60674 828-1132): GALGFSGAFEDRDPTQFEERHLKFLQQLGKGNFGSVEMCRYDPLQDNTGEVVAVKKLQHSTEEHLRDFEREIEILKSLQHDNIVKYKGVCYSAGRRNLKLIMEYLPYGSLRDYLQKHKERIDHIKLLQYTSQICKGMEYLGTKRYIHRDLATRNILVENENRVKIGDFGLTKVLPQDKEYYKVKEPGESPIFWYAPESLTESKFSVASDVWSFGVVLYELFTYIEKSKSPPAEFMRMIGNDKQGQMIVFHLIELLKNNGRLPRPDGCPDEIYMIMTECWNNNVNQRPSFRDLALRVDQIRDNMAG
T2 sequence (P23458 849-1154): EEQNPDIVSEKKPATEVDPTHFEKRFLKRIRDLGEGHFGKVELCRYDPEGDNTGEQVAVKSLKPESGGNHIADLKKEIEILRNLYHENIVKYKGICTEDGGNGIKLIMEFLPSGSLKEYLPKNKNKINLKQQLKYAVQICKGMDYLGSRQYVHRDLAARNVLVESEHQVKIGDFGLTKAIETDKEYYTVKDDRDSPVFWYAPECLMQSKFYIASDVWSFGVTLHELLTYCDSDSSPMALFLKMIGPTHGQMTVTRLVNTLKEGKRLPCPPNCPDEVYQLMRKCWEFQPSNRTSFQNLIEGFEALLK
T4 sequence (Q9UM73 19-1620): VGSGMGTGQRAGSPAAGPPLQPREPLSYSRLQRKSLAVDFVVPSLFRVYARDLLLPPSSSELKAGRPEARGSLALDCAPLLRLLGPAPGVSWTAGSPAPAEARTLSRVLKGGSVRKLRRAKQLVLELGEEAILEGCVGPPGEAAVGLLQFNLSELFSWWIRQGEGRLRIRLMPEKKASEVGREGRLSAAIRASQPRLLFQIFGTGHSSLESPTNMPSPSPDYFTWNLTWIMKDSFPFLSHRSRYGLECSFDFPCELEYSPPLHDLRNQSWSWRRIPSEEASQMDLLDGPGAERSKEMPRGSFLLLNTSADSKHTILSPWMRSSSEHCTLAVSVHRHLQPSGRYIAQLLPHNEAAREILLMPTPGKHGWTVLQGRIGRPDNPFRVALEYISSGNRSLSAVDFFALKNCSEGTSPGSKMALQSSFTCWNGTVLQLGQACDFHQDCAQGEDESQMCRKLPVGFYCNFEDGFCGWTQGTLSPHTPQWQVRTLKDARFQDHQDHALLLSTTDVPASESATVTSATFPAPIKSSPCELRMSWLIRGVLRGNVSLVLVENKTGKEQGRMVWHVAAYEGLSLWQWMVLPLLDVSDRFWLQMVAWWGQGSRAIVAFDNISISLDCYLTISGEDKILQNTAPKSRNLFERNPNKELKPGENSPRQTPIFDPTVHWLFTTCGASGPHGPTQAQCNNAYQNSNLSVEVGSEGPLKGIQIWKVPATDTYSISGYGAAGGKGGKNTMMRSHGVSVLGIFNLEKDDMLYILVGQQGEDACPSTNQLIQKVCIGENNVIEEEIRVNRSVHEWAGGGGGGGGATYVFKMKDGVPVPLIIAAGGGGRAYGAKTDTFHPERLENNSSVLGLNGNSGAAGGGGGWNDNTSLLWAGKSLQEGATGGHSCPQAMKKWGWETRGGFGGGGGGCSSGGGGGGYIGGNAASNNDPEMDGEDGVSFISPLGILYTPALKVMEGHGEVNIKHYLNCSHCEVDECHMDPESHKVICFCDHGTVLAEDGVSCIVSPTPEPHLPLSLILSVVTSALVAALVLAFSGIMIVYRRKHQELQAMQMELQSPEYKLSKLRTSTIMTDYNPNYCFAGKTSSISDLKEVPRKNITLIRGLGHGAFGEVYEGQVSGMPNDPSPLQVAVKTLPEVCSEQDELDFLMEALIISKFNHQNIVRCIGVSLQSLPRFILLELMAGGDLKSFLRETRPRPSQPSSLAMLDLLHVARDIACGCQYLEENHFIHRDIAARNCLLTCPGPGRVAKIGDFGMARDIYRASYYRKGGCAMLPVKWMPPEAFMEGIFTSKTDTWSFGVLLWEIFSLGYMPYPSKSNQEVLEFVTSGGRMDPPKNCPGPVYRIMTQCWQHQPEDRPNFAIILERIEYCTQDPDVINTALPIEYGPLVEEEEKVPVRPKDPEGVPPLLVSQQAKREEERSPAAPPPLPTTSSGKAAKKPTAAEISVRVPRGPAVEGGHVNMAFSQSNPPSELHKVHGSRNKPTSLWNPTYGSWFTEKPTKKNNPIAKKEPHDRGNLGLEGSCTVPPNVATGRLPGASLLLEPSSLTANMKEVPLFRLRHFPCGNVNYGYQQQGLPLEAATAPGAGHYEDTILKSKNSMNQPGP

Compound	IC50 [1] [nM]	IC50 [2] [nM]	IC50 [3] [nM]	ALK % of inhibition at a concentration of 500 nM or 1 mM [4] [%]	IC50 [5] [nM]
Cc1cc(C(=O)N2CCC(C(=O)Nc3ccc4cc3CCc3cccc(c3)Nc3ncc(Cl)c(n3)N4)CC2)no1 [Example A120, N-[6-Chloro-2,4,8,22-tetraazatetracyclo[14.3.1.1(3,7).1(9,13)]docosa-1(20),3(22),4,6,9(21),10,12,16,18-nonaen-12-yl]-1-[(5-methylisoxazol-3-yl)carbonyl]piperidine-4-carboxamide trifluoroacetate]	16	21	112	42	37
Cc1cc(C(=O)N2CCCC(C(=O)Nc3ccc4cc3CCc3cccc(c3)Nc3ncc(Cl)c(n3)N4)C2)no1 (stereo not drawn) [Example A121, N-[6-Chloro-2,4,8,22-tetraazatetracyclo[14.3.1.1(3,7).1(9,13)]docosa-1(20),3(22),4,6,9(21),10,12,16,18-nonaen-12-yl]-1-[(5-methylisoxazol-3-yl)carbonyl]piperidine-3-carboxamide trifluoroacetate]	4.2	14	11	41	14
Cc1cc(C(=O)N2CC[C@@H](C(=O)Nc3ccc4cc3CCc3cccc(c3)Nc3ncc(Cl)c(n3)N4)C2)no1 [Example A122, (3R)—N-[6-Chloro-2,4,8,22-tetraazatetracyclo[14.3.1.1(3,7).1(9,13)]docosa-1(20),3(22),4,6,9(21),10,12,16,18-nonaen-12-yl]-1-[(5-methylisoxazol-3-yl)carbonyl]pyrrolidine-4-carboxamide trifluoroacetate]	3.9	7.2	7.3	52	17
Cc1cc(C(=O)N2CCN(CC(=O)Nc3ccc4cc3CCc3cccc(c3)Nc3ncc(Cl)c(n3)N4)CC2)no1 [Example A123, N-[6-Chloro-2,4,8,22-tetraazatetracyclo[14.3.1.1(3,7).1(9,13)]docosa-1(20),3(22),4,6,9(21),10,12,16,18-nonaen-12-yl]-2-{4-[(5-methylisoxazol-3-yl)carbonyl]piperazin-1-yl}acetamide bis(trifluoroacetate)]	9.6	7.2	68	26	8.3
Cc1cc(C(=O)N2CCC(CCC(=O)Nc3ccc4cc3CCc3cccc(c3)Nc3ncc(Cl)c(n3)N4)CC2)no1 [Example A124, N-[6-Chloro-2,4,8,22-tetraazatetracyclo[14.3.1.1(3,7).1(9,13)]docosa-1(20),3(22),4,6,9(21),10,12,16,18-nonaen-12-yl]-3-{1-[(5-methylisoxazol-3-yl)carbonyl]piperidin-4-yl}propanamide trifluoroacetate]	2.5	0.6	39	34	5.4
Cc1cc(C(=O)N2CCC(CCC(=O)Nc3ccc4cc3CCc3cncc(c3)Nc3ncc(Cl)c(n3)N4)CC2)no1 [Example A125, N-[6-Chloro-2,4,8,18,22-pentaazatetracyclo[14.3.1.1(3,7).1(9,13)]docosa-1(20),3(22),4,6,9(21),10,12,16,18-nonaen-12-yl]-3-{1-[(5-methylisoxazol-3-yl)carbonyl]piperidin-4-yl}propanamide bis(trifluoroacetate)]	4.9	1.7	90	25	5.3
CC(=O)N1CCN(CC(=O)Nc2ccc3cc2CCc2cncc(c2)Nc2ncc(Cl)c(n2)N3)CC1 [Example A127, 2-(4-Acetylpiperazin-1-yl)-N-[6-chloro-2,4,8,18,22-pentaazatetracyclo[14.3.1.1(3,7).1(9,13)]docosa-1(20),3(22),4,6,9(21),10,12,16,18-nonaen-12-yl]acetamide tris(trifluoroacetate)]	64	31	350	15	59
O=C(CC1CCN(C(=O)c2ccno2)CC1)Nc1ccc2cc1CCc1cncc(c1)Nc1ncc(Cl)c(n1)N2 [Example A128, N-[6-Chloro-2,4,8,18,22-pentaazatetracyclo[14.3.1.1(3,7).1(9,13)]docosa-1(20),3(22),4,6,9(21),10,12,16,18-nonaen-12-yl]-2-[1-(isoxazol-5-ylcarbonyl)piperidin-4-yl]acetamide bis(trifluoroacetate)]	4.1	0.6	64	34	1.6
Cn1cc(C(=O)N2CCC(CC(=O)Nc3ccc4cc3CCc3cncc(c3)Nc3ncc(Cl)c(n3)N4)CC2)cn1 [Example A129, N-[6-Chloro-2,4,8,18,22-pentaazatetracyclo[14.3.1.1(3,7).1(9,13)]docosa-1(20),3(22),4,6,9(21),10,12,16,18-nonaen-12-yl]-2-{1-[(1-methyl-1H-pyrazol-4-yl)carbonyl]piperidin-4-yl}acetamide bis(trifluoroacetate)]	17	12	178	32	24
Cn1ccc(C(=O)N2CCC(CC(=O)Nc3ccc4cc3CCc3cncc(c3)Nc3ncc(Cl)c(n3)N4)CC2)n1 [Example A130, N-[6-Chloro-2,4,8,18,22-pentaazatetracyclo[14.3.1.1(3,7).1(9,13)]docosa-1(20),3(22),4,6,9(21),10,12,16,18-nonaen-12-yl]-2-{1-[(1-methyl-1H-pyrazol-3-yl)carbonyl]piperidin-4-yl}acetamide bis(trifluoroacetate)]	9.2	1.2	203	26	4.8
Cc1oncc1C(=O)N1CCC(CC(=O)Nc2ccc3cc2CCc2cncc(c2)Nc2ncc(Cl)c(n2)N3)CC1 [Example A131, N-[6-Chloro-2,4,8,18,22-pentaazatetracyclo[14.3.1.1(3,7).1(9,13)]docosa-1(20),3(22),4,6,9(21),10,12,16,18-nonaen-12-yl]-2-{1-[(5-methylisoxazol-4-yl)carbonyl]piperidin-4-yl}acetamide bis(trifluoroacetate)]	36	6.6	225	20	45
Cc1ncoc1C(=O)N1CCC(CC(=O)Nc2ccc3cc2CCc2cncc(c2)Nc2ncc(Cl)c(n2)N3)CC1 [Example A132, N-[6-Chloro-2,4,8,18,22-pentaazatetracyclo[14.3.1.1(3,7).1(9,13)]docosa-1(20),3(22),4,6,9(21),10,12,16,18-nonaen-12-yl]-2-{1-[(4-methyl-1,3-oxazol-5-yl)carbonyl]piperidin-4-yl}acetamide bis(trifluoroacetate)]	18	7.9	248	23	17
O=C(CC1CCN(C(=O)c2nccs2)CC1)Nc1ccc2cc1CCc1cncc(c1)Nc1ncc(Cl)c(n1)N2 [Example A133, N-[6-Chloro-2,4,8,18,22-pentaazatetracyclo[14.3.1.1(3,7).1(9,13)]docosa-1(20),3(22),4,6,9(21),10,12,16,18-nonaen-12-yl]-2-[1-(1,3-thiazol-2-ylcarbonyl)piperidin-4-yl]acetamide bis(trifluoroacetate)]	11	2.1	73	32	5.5
Cn1cncc1C(=O)N1CCC(CC(=O)Nc2ccc3cc2CCc2cncc(c2)Nc2ncc(Cl)c(n2)N3)CC1 [Example A134, N-[6-Chloro-2,4,8,18,22-pentaazatetracyclo[14.3.1.1(3,7).1(9,13)]docosa-1(20),3(22),4,6,9(21),10,12,16,18-nonaen-12-yl]-2-{1-[(1-methyl-1H-imidazol-5yl)carbonyl]piperidin-4-yl}acetamide bis(trifluoroacetate)]	18	6.2	226	30	25
O=C(CC1CCN(C(=O)c2ccon2)CC1)Nc1ccc2cc1CCc1cncc(c1)Nc1ncc(Cl)c(n1)N2 [Example A135, N-[6-Chloro-2,4,8,18,22-pentaazatetracyclo[14.3.1.1(3,7).1(9,13)]docosa-1(20),3(22),4,6,9(21),10,12,16,18-nonaen-12-yl]-2-[1-(isoxazol-3-ylcarbonyl)piperidin-4-yl]acetamide bis(trifluoroacetate)]	2.3	0.4	79	30	0.9
